Measurements from publication PMC8476755 (Frontiers in Chemistry, 2021).
Where two headings read alike, the source gives them in different places.

Molecular target: T1, GAT3 L314Q (Homo sapiens, UniProt P48066, L314Q)
T1 construct: expressed in transfected cells; host or cells: tsA201 (transformed HEK293), transient
T1 sequence (P48066 1-632 L314Q): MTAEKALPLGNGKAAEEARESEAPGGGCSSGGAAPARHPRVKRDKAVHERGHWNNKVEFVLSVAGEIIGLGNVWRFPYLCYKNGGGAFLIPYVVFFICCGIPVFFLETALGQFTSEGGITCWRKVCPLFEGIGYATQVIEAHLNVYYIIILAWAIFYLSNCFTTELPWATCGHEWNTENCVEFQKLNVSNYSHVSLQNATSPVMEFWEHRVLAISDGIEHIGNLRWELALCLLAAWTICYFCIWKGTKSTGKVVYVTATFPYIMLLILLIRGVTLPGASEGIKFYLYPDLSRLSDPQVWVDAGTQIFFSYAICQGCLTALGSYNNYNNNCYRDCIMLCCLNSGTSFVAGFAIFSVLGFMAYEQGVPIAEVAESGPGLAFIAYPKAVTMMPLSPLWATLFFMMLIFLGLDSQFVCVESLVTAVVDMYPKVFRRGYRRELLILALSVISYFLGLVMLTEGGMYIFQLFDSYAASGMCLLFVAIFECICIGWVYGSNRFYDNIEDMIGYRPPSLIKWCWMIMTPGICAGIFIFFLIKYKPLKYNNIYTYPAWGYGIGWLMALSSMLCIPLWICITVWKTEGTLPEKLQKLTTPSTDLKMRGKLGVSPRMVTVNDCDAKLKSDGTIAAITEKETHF
Test: [3H]GABA uptake assay, transient expression in tsA201 cells
Format: cell-based
Settings: for Increase in inhibitory activity relative to wt: GAT3 L314Q vs GAT3 wt; for IC50: GAT3 L314Q, tsA201 cells
Text: According to the docking and MD results, the sidechains of Q299 and E52 were identified to form crucial interactions with the protonated nitrogen of both compounds. The residue Q299 in human BGT1 corresponds to leucine in all other GATs (human, rat, mouse), while E52 corresponds to tyrosine in GAT1 (human, rat, mouse) but is conserved among GAT2, GAT3 and BGT1 (human, rat, mouse) (Figure 6A) ([Kickinger et al., 2019]). Thus, we engineered the corresponding mutants Q299L and E52Y in human BGT1 and predicted that the introduction of these mutations would lead to decreased activity of both bicyclo-GABA and 2 due to the loss of essential hydrogen bond interactions. Furthermore, we wanted to test the double mutant E52Y + Q299L. However, in a previous study this mutant was proven non-functional ([Kickinger et al., 2020]). Instead, we generated the double mutant E52A + Q299L as well as the single mutant E52A. For these mutants we predicted decreased activity. Lastly, the reciprocal mutation to BGT1 Q299L was created in GAT3 (L314Q), ideally expecting a gain-of-function.
FIGURE 6 (A) Pocket alignment of the orthosteric site of the four GAT subtypes colored according to the default ClustalX color scheme ([Larkin et al., 2007]). The pocket was defined as all corresponding GAT residues (15 in total) that are within a distance of 4.5 Å of the co-crystallized ligand leucine in the homologous LeuT crystal structure (PDB ID 2A65) ([Yamashita et al., 2005]) according to the alignment by Kickinger et al. ([Kickinger et al., 2019]). The mutated residues in BGT1 and the corresponding residues in GAT1-3 are indicated by a red box. The numbering of all residues within the orthosteric pocket can be found in the Supplementary Table S1.
The tsA201 cell line (a transformed HEK293 cell line), the Flp-In CHO cell lines stably expressing human (h) GATs and the HEK293 cell line stably expressing human α1β2γ2 GABAA receptors have been described previously and were cultured accordingly ([Al-Khawaja et al., 2014]; [Falk-Petersen et al., 2020]). The tsA201 cell line used for transient expression of hGATs was transfected with DNA constructs (8 μg per 10 cm plate) using 40 μL PolyFect transfection reagent according to the manufacturer’s protocol (Qiagen). All DNA constructs used have been described previously: wt hBGT1, wt GAT3 ([Kvist et al., 2009]), BGT1 Q299, GAT3 L314Q ([Jørgensen et al., 2017]), hBGT E52Y, BGT1 E52A and BGT1 E52A + Q299L ([Kickinger et al., 2020]).
Briefly, cells were seeded in white 96-well plates (White Opaque Tissue Culture (TC) plated 96-well Microplate) pre-coated with PDL. Medium was removed on the following day and cells washed with 100 µL/well assay buffer (HBSS supplemented with 20 mM HEPES, 1 mM CaCl2 and 1 mM MgCl2, pH 7.4). […] The cells were washed 3 times with 100 µL/well ice-cold assay buffer, 150 µL/well MicroScint™20 was subsequently added before the plate was shaken for at least 1 h. The plate was counted in a Packard TopCounter microplate scintillation counter (PerkinElmer) for 3 min per well. Typical counts per minute for the different GATs were in the range of: wt hBGT1 (100–4,000), BGT1 Q299 (100–1,000), hBGT E52Y (150–500), BGT1 E52A (150–8,000), BGT1 E52A + Q299L (150–500), wt GAT3 (200–8,000), GAT3 L314Q (100–1,500), wt GAT1 (100–10,000) and wt GAT2 (150–7,500). […] Data presented is the pooled data of at least three independent experiments with three technical replicates if not stated otherwise in figure legends. Concentration–response curves were fitted by non-linear regression to the sigmoidal concentration-response model with GraphPad Prism (version 9.0.0, GraphPad Software, San Diego, CA, United States) as described ([Lie et al., 2020]).

Increase in inhibitory activity relative to wt | IC50 (read-out: IC50) [µM] | IC50 (read-out: pIC50 ± S.E.M. (converted)) [µM] | Compound
38 times | 16 | 12.6 | N[C@@]12CC[C@H](C(=O)O)[C@@H]1C2 [bicyclo-GABA, (1S,2S,5R)-5-aminobicyclo[3.1.0]hexane-2-carboxylic acid]
not increased | 291 | – | CN[C@@]12CC[C@H](C(=O)O)[C@@H]1C2 [compound 2]
